test: GSK PKIS2: Screen against O. lienalis microfilariae, single point, at 3.1uM to assess reduction in motility. Compounds were also tested for cytotoxicity against Rhesus Monkey LLCMK2 cells.; format: functional, Onchocerca lienalis, LLC-MK2; conditions: CELL_LINE LLCMK2; CELL_SUPPLIER ECACC; CONC 3.1 uM; ORGANISM_SUPPLIER Extracted from peri-umbilical skin obtained from naturally infected cattle in the UK; temperature 37 degree C

SMILES | MOTILITY REDUCTION/CYTOTOXICITY [%]
NCCS[As](SCCN)c1ccc(Nc2nc(N)nc(N)n2)cc1 | 100
Nc1cccc(-c2ccc3c(N)n[nH]c3c2)n1 | 0
C[C@@H]1CCCCN1c1cc(-c2ccc3c(N)n[nH]c3c2)nc(N)n1 | 13.4
Nc1nc(-c2ccc3c(N)n[nH]c3c2)cc(N2CCC[C@@H](C(=O)Nc3ccccc3)C2)n1 | 0
CNc1nc(-c2ccc3c(N)n[nH]c3c2)cc(N2C[C@@H](C(=O)Nc3ccccc3)CC[C@H]2C)n1 | 0
CC[C@@H]1CO[C@H](C(=O)Nc2ccccc2)CN1c1cc(-c2ccc3c(N)n[nH]c3c2)nc(NC)n1 | 0
CNc1nc(-c2ccc3c(N)n[nH]c3c2)cc(N2C[C@@H](C(=O)NC3CCCCC3)OC[C@H]2C)n1 | 0
Nc1nc(-c2ccc3c(N)n[nH]c3c2)cc(N2CCCC(NC(=O)c3ccccc3)C2)n1 (configuration not stated) | 0
CNc1cc(-c2ccc3c(N)n[nH]c3c2)nc(N)n1 | 0
CN(C)c1cc(-c2ccc3c(N)n[nH]c3c2)nc(N)n1 | 0
CC(C)c1nc(-c2cccc(NS(=O)(=O)c3ccccc3)c2)c(-c2ccnc(Nc3ccc4c(c3)CN(C)CC4)n2)s1 | 86.7
CCc1nc(-c2cccc(N(C)S(=O)(=O)c3ccccc3)c2)c(-c2ccnc(Nc3ccc(N4CCN(C(C)=O)CC4)nc3)n2)s1 | 0
O=c1[nH]cc(-c2ccc(N3CCOCC3)cc2)c2sc(-c3cn[nH]c3)cc12 | 0
Nc1nc(-c2ccccn2)c(-c2ccnc3ccccc23)s1 | 0
OCCCNc1nccc(-c2c(-c3cccc(C(F)(F)F)c3)nn3cc(C(F)(F)F)ccc23)n1 | 0
O=c1cc(N2CCOCC2)nc2n(Cc3ccc(F)c(Cl)c3)ccn12 | 0
Cc1ccc(-c2cc(-c3c[nH]nc3-c3ccccn3)ccn2)cc1 | 0
Nc1nccc2scc(-c3ccc4c(c3)CCN4C(=O)Cc3ccccc3)c12 | 0
Nc1ncnc2occ(-c3ccc4c(c3)CCN4C(=O)Cc3cc(F)ccc3F)c12 | 16.7
Cn1cc(-c2ccc3c(c2)CCN3C(=O)Cc2cccc(F)c2)c2c(N)ncnc21 | 33.4
COc1cc2ncn(-c3cc(OCC4CCCO4)c(C(N)=O)s3)c2cc1OC (configuration not stated) | 46.7
COC(=O)Nc1nc2ccc(Oc3ccc(NC(=O)Nc4cc(F)ccc4F)cc3)cc2[nH]1 | 40

SMILES | MOTILITY REDUCTION/CYTOTOXICITY [%]
c1ccc(Cn2ncc3cc(Nc4ncnc5ccccc45)ccc32)cc1 | 0
c1ccc(Cn2ccc3cc(Nc4ncnc5ccccc45)ccc32)cc1 | 33.4
c1ccc(Cn2cnc3cc(Nc4ncnc5ccccc45)ccc32)cc1 | 16.7
CS(=O)(=O)CCNCc1nc(-c2ccc3ncnc(Nc4ccc(OCc5cccc(F)c5)c(Cl)c4)c3c2)cs1 | 0
NCC(NCc1ccc(-c2ccnc3[nH]ccc23)s1)c1ccccc1 (configuration not stated) | 0
NCC(NC(=O)c1cc(-c2cn[nH]c2)c(-c2ccnc3[nH]ccc23)s1)c1ccccc1 (configuration not stated) | 0
CC(C)NCC(Cc1ccccc1)NC(=O)c1cc(Br)c(-c2ccnc3[nH]ccc23)s1 (configuration not stated) | 66.7
CCNCC(Cc1ccccc1)NC(=O)c1cc(Br)c(-c2ccnc3[nH]ccc23)s1 (configuration not stated) | 0
NCCNS(=O)(=O)c1ccc(-c2ccnc3[nH]ccc23)cc1 | 0
Fc1cccc(COc2ccc(Nc3ncnc4sc(-c5ccc[nH]5)cc34)cc2Cl)c1 | 100
COc1cc2ncn(-c3cc(OCc4ccncc4)c(C(N)=O)s3)c2cc1OC | 0
CCCCc1nn2ncccc2c1-c1ccnc(NC2CC2)n1 | 0
CC(C)Oc1ccc2c(-c3ccnc(Nc4ccc(N5CCN(C)CC5)cc4)n3)cnn2n1 | 0
Cc1cccc(Nc2nc(NCCN)ncc2C(N)=O)c1 | 0
O=S(=O)(c1ccc(-c2ccnc3[nH]ccc23)cc1)N1CCCC1 | 0
COc1ccc(Nc2nccc(NCCNC(=O)Nc3ccccc3F)n2)cc1 | 0
Cc1ccn2nc(-c3ccc(F)cc3)c(-c3ccncc3)c2c1 | 0
Cc1ccc(NC(=O)Nc2ccc(Cl)cc2)cc1-c1ccc(C(=O)Nc2ccncc2)cc1 | 86.7
Cc1ccc(NC(=O)Nc2cccc(Cl)c2)cc1-c1ccc(C(=O)Nc2ccncc2)cc1 | 33.4
Cn1cncc1C(=O)NC1CCN(c2ccnc(Nc3ccc(F)cc3)n2)C1 (configuration not stated) | 0
c1ccc(Oc2ccc(Nc3ccnc4cc(-c5ccc(CN6CCNCC6)o5)ccc34)cc2)nc1 | 0
Fc1ccccc1COc1ccc(Nc2ncnc3ccc(-c4nnc(C(F)(F)F)o4)cc23)cc1Cl | 0

SMILES | MOTILITY REDUCTION/CYTOTOXICITY [%]
COc1cccc(NC(=O)NC2CCN(c3ccnc(Nc4ccc(F)cc4)n3)C2)c1 (configuration not stated) | 13.4
COc1cccc(NC(=O)NCCNc2ccnc(Nc3ccc(F)cc3)n2)c1 | 33.4
Cc1ccc(NC(=O)c2ccc(Cl)cc2)cc1-c1ccc(C(=O)Nc2ccncc2)cc1 | 66.7
COc1cc2ncnc(Nc3ccc(OCc4ccccc4Br)c(Cl)c3)c2cc1OC.Cl | 0
Cc1cc(NCC(c2ccccc2)c2ccccc2)nc(NCc2ccc(C(F)(F)F)cc2)n1 | 53.4
COc1ccc(NC(=O)Nc2ccc(C)c(-c3ccc(C(=O)Nc4ccncc4)cc3)c2)cc1 | 80
O=C(NCCCN1CCOCC1)c1cccc(Nc2nccc(Nc3ccc(Oc4ccccc4)cc3)n2)c1 | 13.4
c1ccc(-c2ccc3c(Nc4ccc5[nH]ccc5c4)ccnc3c2)nc1 | 33.4
N#Cc1cnc2cc(-c3cnc(CNCCN4CCOCC4)s3)ccc2c1Nc1ccc(Oc2ccccc2)cc1 | 16.7
CCS(=O)(=O)c1ccc(OC)c(Nc2nccc(-c3c(-c4cccc(NC(=O)c5c(F)cccc5F)c4)nn4ncccc34)n2)c1 | 33.4
COc1cc(Nc2nccc(N3CCC(NC(=O)c4cccc(C#N)c4)C3)n2)cc(OC)c1OC (configuration not stated) | 0
COc1ccc(CNC(=O)NC2CCN(c3ccnc(Nc4cc(OC)c(OC)c(OC)c4)n3)C2)cc1 (configuration not stated) | 0
COc1cccc(CNC(=O)NC2CCN(c3ccnc(Nc4cc(OC)c(OC)c(OC)c4)n3)C2)c1 (configuration not stated) | 66.7
COc1cc2nccc(Nc3ccc(Oc4ccccc4)cc3)c2cc1OC | 0
O=C(NCCNc1ccnc(Nc2ccc(F)cc2)n1)Nc1ccc2c(c1)OCO2 | 0
c1ccc(-c2ccc3c(Nc4ccc5[nH]ncc5c4)ccnc3c2)nc1 | 60
CC(=O)Nc1ccc(COc2ccc(Nc3ccnc4cc(-c5ccccn5)ccc34)cc2)cc1 | 100
CNC(=O)c1ccccc1Nc1nc(Nc2ccc(N3CCOCC3)cc2)ncc1Cl | 80
O=c1[nH]ccc2nc(N[C@@H]3CCNC3)nc(Nc3cc(Cl)cc(Cl)c3)c12 | 100
O=S(=O)(c1cccc(F)c1)c1ccc(Nc2ncnc3cc(Br)sc23)cc1Cl | 73.4
COc1cc(Nc2nccc(N3CCC(NC(=O)Nc4ccc5c(c4)OCO5)C3)n2)cc(OC)c1OC (configuration not stated) | 0
Cn1ccc(-c2cccc(Nc3ccnc4cc(-c5nccs5)ccc34)c2)n1 | 0

SMILES | MOTILITY REDUCTION/CYTOTOXICITY [%]
NS(=O)(=O)c1cccc(N/C=C2\C(=O)Nc3ccc(S(=O)(=O)Cc4c(Cl)cccc4Cl)cc32)c1 | 33.4
Cc1cccc(-c2cc(Nc3ccncc3)c3ccccc3n2)n1 | 0
COc1ccc(S(=O)(=O)NC2CCN(c3cc(C)nc(Nc4cccc(C#N)c4)n3)CC2)cc1 | 0
O=C(Nc1cccc(-c2nn3ncccc3c2-c2ccnc(Nc3cccc(C(F)(F)F)c3)n2)c1)c1c(F)cccc1F | 0
O=C(NCCNc1ccnc(Nc2ccc(F)cc2)n1)c1cc2ccccc2s1 | 66.7
NS(=O)(=O)c1cccc(-c2ccc3ncc(N4CCOCC4)nc3c2)c1 | 0
COc1ccc(CNC(=O)NC2CCN(c3ccnc(Nc4ccc(F)cc4)n3)CC2)cc1 | 33.4
COc1ccc(CNC(=O)NC2CCN(c3ccnc(Nc4ccc(F)cc4)n3)C2)cc1 (configuration not stated) | 0
Oc1cccc(Nc2ccnc3cc(-c4ccncc4)ccc23)c1 | 0
Fc1cc(Cl)ccc1Nc1ccnc2cc(-c3ccc(CN4CCCCC4)o3)ccc12 | 16.7
Cc1n[nH]c2cc(Nc3ccnc(Nc4cccc(CN5CCOCC5)c4)n3)ccc12 | 0
O=C(Nc1ccccc1F)NC1CCN(c2ccnc(Nc3ccc(F)cc3)n2)CC1 | 53.4
COc1cccc(NC(=O)NC2CCN(c3ccnc(Nc4cc(OC)c(OC)c(OC)c4)n3)C2)c1 (configuration not stated) | 86.7
COc1ccc(Nc2nccc(N3CCC(NC(=O)c4cc5ccccc5s4)C3)n2)cc1 (configuration not stated) | 0
C[C@@H](Oc1cc(-n2cnc3ccc(NC(=O)NC(C)(C)C)cc32)sc1C(N)=O)c1ccccc1Cl | 60
CC(=O)c1cccc(NC(=O)NC2CCN(c3ccnc(Nc4ccc(F)cc4)n3)C2)c1 (configuration not stated) | 0
COC(=O)C(NC(=O)NC1CCN(c2ccnc(Nc3ccc(F)cc3)n2)C1)c1ccccc1 (configuration not stated) | 0
COC(=O)c1cccc(NC(=O)NC2CCN(c3ccnc(Nc4ccc(OC)cc4)n3)C2)c1 (configuration not stated) | 66.7
Cc1n[nH]c2ccc(-c3cc(OC[C@@H](N)Cc4ccccc4)cnc3-c3ccoc3)cc12 | 0
COC(=O)c1cccc(NC(=O)NC2CCN(c3ccnc(Nc4cc(OC)c(OC)c(OC)c4)n3)C2)c1 (configuration not stated) | 66.7
Nc1ncnc2c1ncn2-c1ccc(Cl)cc1 | 60

Source: ChEMBL document CHEMBL3988181, “GlaxoSmithKline Published Kinase Inhibitor Set 2 Onchocerca lienalis Screening Data”
